The values that follow come from patent US20050089488A1, “Deodorant composition with monocyclic, unsaturated sequiterpene alcohols and glyceryl monoalkyl ethers as synergistic active deodorant agents” (priority 2003, published 2005).

Data set [1] has as its system odor-causing gram positive bacteria. To be noted: cited from earlier work.
The conditions of data set [2]: 0.3% by weight in ethanol base deodorant, versus triclosan; cited from earlier work.
For data set [3] the following is noted: cited from earlier work.
For data set [4], the system named is Staphylococcus aureus (ATCC 6538). Description: Surviving microorganisms after direct inoculation of gel formula. The data set is classed as cell-based. The procedure: The antimicrobially synergistically effect of alpha bisabolol (Natural) for glyceryl monoalkyl ether was studied and the results are summarized in Tables 15 and 16, below. […] Subsequently the steareth-100, sodium stearate, and […] alcohol were added and the mixture cooled. […] The final compositions were then poured into containers and cooled to room temperature. […] Therefore following formula is gel type. Inoculate test microorganisms to provide a suspension containing from 105 to 106 microorganisms/ml and after 1 hr, 5 hr and 24 hr, check the surviving microorganisms by incubating in the soybean-casein digest agar for 24 hours at 32.5° C. the results are summarized below.

Regarding `CCCCC(CC)COCC(O)CO` (stereo not shown) [Ethylhexylglycerin], the “anti-microbial activity against odor-causing gram positive bacteria” value in data set [1] was “very low”. In addition, in data set [2], the deodorant effectiveness result is reported as “just as effective as 0.1% by weight triclosan”. The stability entry in data set [3] (against hydrolysis and elevated temperatures) is “rather stable”. The “solubility in fats and organic solvents” value in data set [3] (fats, alcohols, glycols and glycol ethers) was “completely soluble”. Besides, the solubility in water in data set [3] (water) is recorded as 0.2%.
Consider `CC(C)=CCC[C@](C)(O)[C@@H]1CC=C(C)CC1` [alpha bisabolol (Natural), alpha-bisabolol], for which the anti-microbial activity alone result in data set [4] (0.2% by weight, with no ethylhexylglycerin) is recorded as “no anti-microbial activity”. For the same compound, the “effect on the anti-microbial activity of ethylhexylglycerin” value in data set [4] (combination with ethylhexylglycerin) was “surprising and unexpected synergistic effect”.
